Where a name gives a salt, the structure may show the parent alone.
Molecular target: T1, human EP3 receptor (Homo sapiens, UniProt P43115)
T1 construct: expressed in transfected cells; host or cells: CHO K1 (Chinese Hamster Ovary), stably co-transfected with Galpha16 and mitochondrial clytin
T1 sequence (P43115 1-390): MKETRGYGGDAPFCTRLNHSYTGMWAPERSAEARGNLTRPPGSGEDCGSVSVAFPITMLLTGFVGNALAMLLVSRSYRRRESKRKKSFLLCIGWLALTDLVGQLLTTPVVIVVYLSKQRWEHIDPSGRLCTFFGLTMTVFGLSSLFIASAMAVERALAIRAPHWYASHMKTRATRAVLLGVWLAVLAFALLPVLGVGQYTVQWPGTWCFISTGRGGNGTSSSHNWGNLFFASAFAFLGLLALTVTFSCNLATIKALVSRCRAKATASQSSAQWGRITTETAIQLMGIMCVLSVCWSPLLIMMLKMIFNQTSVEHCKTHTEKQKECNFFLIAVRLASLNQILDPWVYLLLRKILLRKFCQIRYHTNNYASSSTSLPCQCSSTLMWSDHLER
Test: Cellular in vitro assay for determining EP3 receptor activity (human EP3 cell line, sulprostone-stimulated calcium luminescence)
Type: cell-based
Conditions: CHO cells expressing human EP3 and mitochondrial Clytin; antagonist mode, sulprostone at EC50; read-out: EP3 CHO mtCLY ANTAG IC50
Outline: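 Antagonist activity was measured as inhibition of the luminescent calcium signal elicited by EC50 sulprostone, following 10 min compound pretreatment. The cell line was recombinant CHO K1 co-expressing human EP3, Gα16 and the photoprotein Clytin, reconstituted with coelenterazine.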

Row | SMILES | IC50
1 | CCN1CC(NC(=O)c2nn3cc(-c4ccc5ccccc5c4)[nH]c(=O)c3c2C(F)(F)F)(c2ccc(F)cc2)C1 [Example 1-126, N-[1-Ethyl-3-(4-fluorophenyl)azetidin-3-yl]-6-(naphthalen-2-yl)-4-oxo-3-(trifluoromethyl)-4,5-dihydropyrazolo[1,5-a]pyrazine-2-carboxamide] | 5.1 nM
2 | COc1ccc(CNC(=O)c2cc3c(=O)[nH]c(-c4ccc(C)c(Cl)c4)c(C)n3n2)cc1OC [Example 1-129, 6-(3-Chloro-4-methylphenyl)-N-(3,4-dimethoxybenzyl)-7-methyl-4-oxo-4,5-dihydropyrazolo-[1,5-a]pyrazine-2-carboxamide] | 7.82 nM
3 | Cc1cc(-c2cn3nc(C(=O)N[C@H](C)c4ccc(F)cc4)c(C4CC4)c3c(=O)[nH]2)ccc1C(F)(F)F [Example 1-131, 3-Cyclopropyl-N-[(1R)-1-(4-fluorophenyl)ethyl]-6-[3-methyl-4-(trifluoromethyl)phenyl]-4-oxo-4,5-dihydropyrazolo[1,5-a]pyrazine-2-carboxamide] | 5.45 nM
4 | Cc1cc(-c2cn3nc(C(=O)N[C@@H](c4ccc(F)cc4)C(C)(C)O)c(C4CC4)c3c(=O)[nH]2)ccc1C(F)(F)F [Example 1-132, 3-Cyclopropyl-N-[(1S)-1-(4-fluorophenyl)-2-hydroxy-2-methylpropyl]-6-[3-methyl-4-(trifluoromethyl)phenyl]-4-oxo-4,5-dihydropyrazolo[1,5-a]pyrazine-2-carboxamide] | 4.05 nM
5 | CC(C)(O)[C@@H](NC(=O)c1cc2c(=O)[nH]c(-c3ccc4c(c3)CCC4)cn2n1)c1ccc(F)cc1 [Example 1-134, 6-(2,3-Dihydro-1H-inden-5-yl)-N-[(1S)-1-(4-fluorophenyl)-2-hydroxy-2-methylpropyl]-4-oxo-4,5-dihydropyrazolo[1,5-a]pyrazine-2-carboxamide] | 5.75 nM
6 | Cc1ccc(-c2cn3nc(C(=O)N[C@@H](c4ccc(F)cc4)C(C)(C)O)c(C(C)C)c3c(=O)[nH]2)cc1C [Example 1-135, 6-(3,4-Dimethylphenyl)-N-[(1S)-1-(4-fluorophenyl)-2-hydroxy-2-methylpropyl]-4-oxo-3-(propan-2-yl)-4,5-dihydropyrazolo[1,5-a]pyrazine-2-carboxamide] | 5.8 nM
7 | CC(NC(=O)c1cc2c(=O)[nH]c(-c3ccc4ccccc4c3)cn2n1)c1ccc(O)cc1 (centres unmarked) [Example 1-136, N-[1-(4-Hydroxphenyl)ethyl]-6-(2-naphthyl)-4-oxo-5H-pyrazolo[1,5-a]pyrazine-2-carboxamide] | 5.8 nM
8 | CC[C@@H](C)NC(=O)c1nn2cc(-c3ccc(C(F)(F)F)c(C)c3)[nH]c(=O)c2c1C1CC1 [Example 1-138, N-[(2R)-Butan-2-yl]-3-cyclopropyl-6-[3-methyl-4-(trifluoromethyl)phenyl]-4-oxo-4,5-dihydropyrazolo[1,5-a]pyrazine-2-carboxamide] | 6.85 nM
9 | Cc1cc(-c2cn3nc(C(=O)N[C@H](C)C(C)C)c(C4CC4)c3c(=O)[nH]2)ccc1C(F)(F)F [Example 1-139, 3-Cyclopropyl-N-[(2R)-3-methylbutan-2-yl]-6-[3-methyl-4-(trifluoromethyl)phenyl]-4-oxo-4,5-dihydropyrazolo[1,5-a]pyrazine-2-carboxamide] | 7.55 nM
10 | O=C(N[C@H](CCO)c1ccc(F)cc1)c1nn2cc(-c3ccc4ccccc4c3)[nH]c(=O)c2c1C1CC1 [Example 1-144, 3-Cyclopropyl-N-[(1R)-1-(4-fluorophenyl)-3-hydroxypropyl]-6-(naphthalen-2-yl)-4-oxo-4,5-dihydropyrazolo[1,5-a]pyrazine-2-carboxamide] | 3.05 nM
11 | CCN1CC(NC(=O)c2cc3c(=O)[nH]c(-c4ccc5ccccc5c4)cn3n2)(c2ccc(F)cc2)C1 [Example 1-145, N-[3-(4-Fluorophenyl)-1-ethylazetidin-3-yl]-6-(naphthalen-2-yl)-4-oxo-4,5-dihydropyrazolo[1,5-a]-pyrazine-2-carboxamide formic acid salt] | 7.05 nM
12 | CC(=O)N1CC(NC(=O)c2cc3c(=O)[nH]c(-c4ccc5ccccc5c4)cn3n2)(c2ccc(F)cc2)C1 [Example 1-146, N-[1-Acetyl-3-(4-fluorophenyl)azetidin-3-yl]-6-(2-naphthyl)-4-oxo-5H-pyrazolo[1,5-a]pyrazine-2-carboxamide] | 4.5 nM
13 | Cc1ccc(-c2cn3nc(C(=O)N[C@@H](c4ccc(F)cc4)C(C)(C)O)c(C(F)(F)F)c3c(=O)[nH]2)cc1F [Example 1-147, 6-(3-Fluoro-4-methylphenyl)-N-[(15)-1-(4-fluorophenyl)-2-hydroxy-2-methylpropyl]-4-oxo-3-(trifluoromethyl)-4,5-dihydropyrazolo[1,5-a]pyrazine-2-carboxamide] | 2.9 nM
14 | Cc1ccc(-c2cn3nc(C(=O)NC4(c5ccc(F)cc5)CN(C)C4)c(C)c3c(=O)[nH]2)cc1Cl [Example 1-150, 6-(3-Chloro-4-methylphenyl)-N-[3-(4-fluorophenyl)-1-methylazetidin-3-yl]-3-methyl-4-oxo-4,5-dihydropyrazolo[1,5-a]pyrazine-2-carboxamide] | 7.23 nM

The remaining molecules from weak to strong by IC50, led by results:

Row | IC50 | SMILES
15 | 2.9 nM | CC(C)CN1CC(NC(=O)c2nn3cc(-c4ccc5ccccc5c4)[nH]c(=O)c3c2C(F)(F)F)(c2ccc(F)cc2)C1 [Example 1-128, N-[3-(4-Fluorophenyl)-1-(2-methylpropyl)azetidin-3-yl]-6-(naphthalen-2-yl)-4-oxo-3-(trifluoromethyl)-4,5-dihydropyrazolo[1,5-a]pyrazine-2-carboxamide]
16 | 2.9 nM | Cc1ccc(-c2cn3nc(C(=O)NC(C)c4ccc(O)cc4)cc3c(=O)[nH]2)cc1C (centres unmarked) [Example 1-137, 6-(3,4-Dimethylphenyl)-N-[1-(4-hydroxphenyl)ethyl]-4-oxo-5H-pyrazolo[1,5-a]pyrazine-2-carboxamide]
17 | 2.8 nM | CC(C)(O)[C@@H](NC(=O)c1cc2c(=O)[nH]c(-c3ccc4c(c3)CCCC4)cn2n1)c1ccc(F)cc1 [Example 1-133, N-[(1S)-1-(4-Fluorophenyl)-2-hydroxy-2-methylpropyl]-4-oxo-6-(5,6,7,8-tetrahydronaphthalen-2-yl)-4,5-dihydropyrazolo[1,5-a]pyrazine-2-carboxamide]
18 | 2.55 nM | Cc1ccc(-c2[nH]c(=O)c3c(C(F)(F)F)c(C(=O)NCCn4ccc(C5CC5)n4)nn3c2C)cc1C [Example 1-130, N-[2-(3-Cyclopropyl-1H-pyrazol-1-yl)ethyl]-6-(3,4-dimethylphenyl)-7-methyl-4-oxo-3-(trifluoromethyl)-4,5-dihydropyrazolo[1,5-a]pyrazine-2-carboxamide]
19 | 2.33 nM | CC[C@@H](C)NC(=O)c1nn2cc(-c3ccc(C)c(Cl)c3)[nH]c(=O)c2c1C [Example 1-149, N-[(2R)-Butan-2-yl]-6-(3-chloro-4-methylphenyl)-3-methyl-4-oxo-4,5-dihydropyrazolo[1,5-a]-pyrazine-2-carboxamide]
20 | 2.15 nM | CCCN1CC(NC(=O)c2nn3cc(-c4ccc5ccccc5c4)[nH]c(=O)c3c2C(F)(F)F)(c2ccc(F)cc2)C1 [Example 1-127, N-[3-(4-Fluorophenyl)-1-propylazetidin-3-yl]-6-(naphthalen-2-yl)-4-oxo-3-(trifluoromethyl)-4,5-dihydropyrazolo[1,5-a]pyrazine-2-carboxamide]
21 | 1.95 nM | CC[C@@H](C)NC(=O)c1nn2cc(-c3ccc(C)c(C)c3)[nH]c(=O)c2c1C(C)C [Example 1-140, N-[(2R)-Butan-2-yl]-6-(3,4-dimethylphenyl)-4-oxo-3-(propan-2-yl)-4,5-dihydropyrazolo[1,5-a]-pyrazine-2-carboxamide]
22 | 1.7 nM | Cc1ccc(-c2cn3nc(C(=O)N[C@H](C)C(C)C)c(C(C)C)c3c(=O)[nH]2)cc1C [Example 1-141, 6-(3,4-Dimethylphenyl)-N-[(2R)-3-methylbutan-2-yl]-4-oxo-3-(propan-2-yl)-4,5-dihydropyrazolo-[1,5-a]pyrazine-2-carboxamide]
23 | 1.5 nM | Cc1ccc(-c2cn3nc(C(=O)N[C@H](C)C(C)C)c(C4CC4)c3c(=O)[nH]2)cc1C [Example 1-143, 3-Cyclopropyl-6-(3,4-dimethylphenyl)-N-[(2R)-3-methylbutan-2-yl]-4-oxo-4,5-dihydropyrazolo-[1,5-a]pyrazine-2-carboxamide]
24 | 1.33 nM | Cc1ccc(-c2cn3nc(C(=O)N[C@@H](c4ccc(F)cc4)C(C)(C)O)c(C)c3c(=O)[nH]2)cc1Cl [Example 1-148, 6-(3-Chloro-4-methylphenyl)-N-[(1S)-1-(4-fluorophenyl)-2-hydroxy-2-methylpropyl]-3-methyl-4-oxo-4,5-dihydropyrazolo[1,5-a]pyrazine-2-carboxamide]
25 | 1.16 nM | CC[C@@H](C)NC(=O)c1nn2cc(-c3ccc(C)c(C)c3)[nH]c(=O)c2c1C1CC1 [Example 1-142, N-[(2R)-Butan-2-yl]-3-cyclopropyl-6-(3,4-dimethylphenyl)-4-oxo-4,5-dihydropyrazolo[1,5-a]-pyrazine-2-carboxamide]
26 | 1.15 nM | Cc1ccc(-c2cn3nc(C(=O)N[C@@H](c4ccc(F)cc4)C(C)(C)O)c(C(F)(F)F)c3c(=O)[nH]2)cc1Cl [Example 1-151, 6-(3-Chloro-4-methylphenyl)-N-[(1S)-1-(4-fluorophenyl)-2-hydroxy-2-methylpropyl]-4-oxo-3-(trifluoromethyl)-4,5-dihydropyrazolo[1,5-a]pyrazine-2-carboxamide]
